According to patent US9139502B2, “Use of an urushiol compound in preparation of pharmaceutical compositions for inhibiting Smad3 phosphorylation” (Southern Hospital, Southern Medical University, priority 2013, dated 2015):

Legend:
[1] = test system: C57BL/6J mice; assay: Single-dose toxicity of GQ-5 in mice; format: in vivo; details: single intraperitoneal dose up to 800 mg/kg, 7-day observation
Procedure: To test the toxicity of GQ-5, 20 C57BL/6J little male mice which are […], healthy and clean, their weights are between 20 and 22 gram. Antisepsis the feed and water, before and in the layoff period of the test, all the mice should be feed under the normal feeding condition.
Dissolve GQ-5 in 0.5% propylene glycol, this liquor is given to little mice by intraperitoneal injection. The dosage of GQ-5 was 10, 40, 200, and 800 mg/kg body weight of mice. After administration, they are observed for 7 days.

[2] = test system: NRK52E cells; assay: MTT cell viability test; format: cell-based, rat; details: GQ-5 0.25-4 μM, 1 h
Procedure: To test the toxicity of GQ-5, rat proximal tubular cells (NRK52E) were seeded into 96-well plates in a volume of 200 μl per well (1×10^5 cell/ml) and incubated for 24 hours to allow cells to attach. The cells were then incubated with indicated amount of GQ-5 for 1 h. Cell viability was determined by addition of 20 μl of 3-(4,5-dimethylthiazol-2-yl)-2, 5-diphenyltetrazolium bromide (MTT) at a concentration of 5 mg/ml. After incubation for 4 hours, the medium was removed and 150 μl of DMSO was added to dissolve the formazan crystals. The absorbance was read at 540 nm by using iMark™Microplate Reader (Bio-Rad).

[3] = test system: Smad2 phosphorylation; assay: Smad2 phosphorylation in kidney tissue of UUO rats (immunohistochemistry, Western blot); format: in vivo, rat; details: GQ-5 40 mg/kg daily i.p. right after or 7 days after UUO, sacrificed day 14
Procedure: Male Sprague-Dawley rats with body weight 200 to 250 g were randomized into 4 groups (n=6 in each group): (1) sham operated rats; (2) UUO rats; (3) UUO+GQ-5 d1 rats; (4) UUO+GQ-5 d7 rats.
(§1) GQ-5 was dissolved in 5% propylene glycol.
(§2) (3) UUO+GQ-5 d1 rats: daily intraperitoneal injection of GQ-5 (40 mg/kg body weight) right after UUO;
(§3) (4) UUO+GQ-5 d7 rats: daily intraperitoneal injection of GQ-5 (40 mg/kg body weight) 7 days after UUO.
UUO was performed using an established protocol as described. GQ-5 was dissolved in 5% propylene glycol. Rats were administrated with GQ-5 as described before. All the rats were sacrificed 14 days after UUO. Immunohistochemical staining and Western blot analyses were performed to examine the Smad3 and Smad2 phosphorylation in kidney tissue.

[4] = test system: ERK; assay: Western blot of ERK phosphorylation in UUO kidneys; format: in vivo, rat; details: UUO rats, GQ-5 40 mg/kg daily i.p. right after UUO, sacrificed day 14
Procedure: (§4) Male Sprague-Dawley rats with body weight 200 to 250 g were randomized into 3 groups (n=6 in each group): (1) sham operated rats; (2) UUO rats; (3) UUO+GQ-5 rats.
as §1
(§5) (3) UUO+GQ-5 rats: daily intraperitoneal injection of GQ-5 (40 mg/kg body weight) right after UUO;
UUO was performed using an established protocol as described. GQ-5 was dissolved in 5% propylene glycol. Rats were administrated with GQ-5 as described before. All the rats were sacrificed 14 days after UUO. Western blot analyses were performed to examine the Smad4, Smad7 expression and p38, PI3K, ERK phosphorylation.

[5] = test system: Smad3-dependent collagen I promoter; assay: Luciferase reporter assay of Smad3-dependent collagen I promoter activity; format: cell-based, rat; details: NRK52E cells transfected with p(GAGA)12-luc, GQ-5 0.1, 0.5, 2.5 μM pre-treated 1 h, TGF-β1 10 ng/ml 24 h
[6] = test system: α-SMA; assay: Western blot of TGF-β1-induced α-SMA protein in vitro; format: cell-based, rat; details: NRK 52E and NRK 49F cells, GQ-5 0.1-2.5 μM pre-treated 1 h, TGF-β1 10 ng/ml 48 h
Procedure: (§6) NRK52E and NRK49F cells were cultured in DMEM-Ham's medium supplemented with 10% fetal bovine serum. The cells reached at approximately 50% confluence were used for in vitro experiments. Cells were serum-starved for 12 h, and randomized into 6 groups: (1) Controls; (2) GQ-5 only; (3) TGF-β1 only; (4) TGF-β1+GQ-5 0.1 μM; (5) TGF-β1+GQ-5 0.5 μM; (6) TGF-β1+GQ-5 2.5 μM
(§7) (2) GQ-5 only: pre-treated with GQ-5 (2.5 μM) for 1 h, followed with DMEM for 48 h
(§8) (3) TGF-β1 only: pre-treated with DMSO for 1 h, followed with TGF-β1 (10 ng/ml) for 48 h
(§9) (4) TGF-β1+GQ-5 0.1 μM: pre-treated with GQ-5 (0.1 μM) for 1 h, followed with TGF-β1 (10 ng/ml) for 48 h
(§10) (5) TGF-β1+GQ-5 0.5 μM: pre-treated with GQ-5 (0.5 μM) for 1 h, followed with TGF-β1 (10 ng/ml) for 48 h
(§11) (6) TGF-β1+GQ-5 2.5 μM: pre-treated with GQ-5 (2.5 μM) for 1 h, followed with TGF-β1 (10 ng/ml) for 48 h
(§12) GQ-5 was dissolved in DMSO. Cells were treated as described. Cells lysates were immunebloted with antibodies against α-SMA, collagen I and fibronectin.

[7] = test system: fibronectin; assay: Western blot of TGF-β1-induced fibronectin protein in vitro; format: cell-based, rat; details: NRK 52E and NRK 49F cells, GQ-5 0.1-2.5 μM pre-treated 1 h, TGF-β1 10 ng/ml 48 h
Procedure: as §6, §7, §8, §9, §10, §11, §12

[8] = test system: fibronectin; assay: Fibronectin expression in UUO kidney tissue (real-time PCR, immunohistochemistry, Western blot); format: in vivo, rat; details: UUO rats, GQ-5 40 mg/kg daily i.p., sacrificed day 14
Procedure: Male Sprague-Dawley rats were randomized into 4 groups (n=6 in each group): (1) sham operated rats; (2) UUO rats; (3) UUO+GQ-5 d1 rats; (4) UUO+GQ-5 d7 rats.
as §1, §2, §3
UUO was performed using an established protocol as described. GQ-5 was dissolved in 5% propylene glycol. Rats were administrated with GQ-5 as described before. All the rats were sacrificed 14 days after UUO. HE staining, Masson trichrome staining were performed to examine the renal tissue injury, and Real-time PCR analyses, immunohistochemical staining, and Western blot analyses were performed to examine α-SMA, collagen I and fibronectin expression in kidney tissue

[9] = target: interaction of Smad2 with TβRI (Rattus norvegicus, UniProt O70436); assay: Immunoprecipitation of Smad2 with TβRI in UUO kidneys; format: in vivo; details: GQ-5 40 mg/kg daily i.p. right after UUO, sacrificed day 14
Chain of interaction of Smad2 with TβRI (O70436 whole entry): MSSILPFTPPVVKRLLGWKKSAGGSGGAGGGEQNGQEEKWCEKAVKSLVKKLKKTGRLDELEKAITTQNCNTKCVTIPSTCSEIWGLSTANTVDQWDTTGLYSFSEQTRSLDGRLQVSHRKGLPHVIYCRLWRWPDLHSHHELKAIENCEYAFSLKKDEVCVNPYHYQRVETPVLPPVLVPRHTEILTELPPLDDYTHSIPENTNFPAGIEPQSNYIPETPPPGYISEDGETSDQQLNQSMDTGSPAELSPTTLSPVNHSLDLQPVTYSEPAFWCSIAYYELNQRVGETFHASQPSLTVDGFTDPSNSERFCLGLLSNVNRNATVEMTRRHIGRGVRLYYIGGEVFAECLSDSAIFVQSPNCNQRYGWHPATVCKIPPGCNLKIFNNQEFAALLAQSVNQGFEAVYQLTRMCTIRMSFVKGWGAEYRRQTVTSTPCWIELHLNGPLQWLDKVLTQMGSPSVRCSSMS
Procedure: as §4, §1, §5
UUO was performed using an established protocol as described. GQ-5 was dissolved in 5% propylene glycol. Rats were administrated with GQ-5 as described before. All the rats were sacrificed 14 days after UUO. Immunoprecipitation analyses were performed to examine the interaction among TβRI, TβRII, Smad3 and Smad2.

In the case of `CCCCCC/C=C\CCCCCCCc1cccc(O)c1O` [GQ-5, 3-[(Z)-pentadec-8-enyl]catechol], the “death or adverse event” value [1] is reported as “did not die or developed any adverse event”, the “viability and proliferation of the cells (MTT)” value [2] is reported as “did not affect” and the “Smad2 phosphorylation in renal tissue” value [3] is reported as “not Smad2”. The “phosphorylation of ERK” value [4] was “did not affect”, the “TGF-β1-induced Smad3-dependent collagen I promoter activity” value [5] was “significantly inhibited TGF-β1-induced Smad3-dependent collagen I promoter activity in a dose-dependent manner” and the “TGF-β1-induced protein expression of α-SMA” value [6] was “significantly inhibited”. The “TGF-β1-induced protein expression of fibronectin” value [7] was “significantly inhibited”, the “up-regulation of fibronectin at both mRNA and protein level” value [8] was “significantly inhibited” and the “interaction of Smad2 with TβRI” value [9] was “did not affect”.
